System: IFN-γ
Experiment: In vivo peptide micro-library screening, IFN-γ ELISA of re-stimulated splenocytes relative to A5
Design: species or system mice
Settings: rank among 100 micro-library peptides; IFN-γ on re-stimulation relative to A5; 5 peptides plus A5 with CPQ
Description: Mice were immunized with 5 library peptides at a time, along with the A5 peptide, with all peptides combined and admixed with CPQ. After two intramuscular injections, splenocytes were collected, and then re-stimulated with each of the synthetic micro-library peptides, individually. Production of IFN-γ was measured and peptide immunogenicity was determined relative to the A5 peptide, which served as in internal control that could induce strong Ag-specific CD8^+ T cell responses.
For Ag screening, multivalent vaccine composed of peptide with the same MHC-I haplotypes (H-2L^d, H-2D^d, or H-2K^d) and the internal A5 peptide were admixed with CPQ. After immunization, only ˜10% of MHC-I binding peptides induced T cells in splenocytes that produced IFN-γ with peptide re-stimulation, and none were nearly as effective as A5 (FIG. 16B). The most highly immunogenic peptides only produced about a quarter of the level of IFN-γ relative to A5. […] It is also feasible that immunization with higher antigen doses of single individual peptides could have induced stronger immunogenic responses, although this would decrease the in vivo peptide micro-library screening throughput.
IFN-γ ELISA: 2.5×10^5 splenocytes were seeded in a 96 wells plate and stimulated with 10 μg/mL antigens for 72 hr. 50 μL of supernatant was collected from each well and subjected to Interferon gamma ELISA (Thermofisher; catalog: BMS606TEN) according to manufacturer protocol.

| Substance | Experimental rank |
| --- | --- |
| H6-AYVNAIEKI-ERR (HHHHHHAYVNAIEKIERR; CT12) | 93 |
| H6-AYVNATGEV-ERR (HHHHHHAYVNATGEVERR; CT13) | 95 |
| H6-CQIAMVHYI-ERR (HHHHHHCQIAMVHYIERR; CT61) | 10 |
| H6-CYVTYKGEI-ERR (HHHHHHCYVTYKGEIERR; CT9) | 89 |
| H6-DPFATPLSM-ERR (HHHHHHDPFATPLSMERR; CT21) | 83 |
| H6-DPQFAENYV-ERR (HHHHHHDPQFAENYVERR; CT94) | 55 |
| H6-DSPNRRFTE-ERR (HHHHHHDSPNRRFTEERR; CT60) | 20 |
| H6-EGPHGQPVS-ERR (HHHHHHEGPHGQPVSERR; CT54) | 57 |
| H6-EPQIAMDDM-ERR (HHHHHHEPQIAMDDMERR; CT22) | 74 |
| H6-EPQVEPLDF-ERR (HHHHHHEPQVEPLDFERR; CT15) | 81 |
| H6-EYEKIEIPI-ERR (HHHHHHEYEKIEIPIERR; CT68) | 66 |
| H6-FFMKMASKF-ERR (HHHHHHFFMKMASKFERR; CT73) | 78 |
| H6-FPPQNMFEF-ERR [CT14] (HHHHHHFPPQNMFEFERR; CT14) | 98 |
| H6-FPPQNMFEF-ERR [CT43] (HHHHHHFPPQNMFEFERR; CT43) | 15 |
| H6-FPSESEFFK-ERR (HHHHHHFPSESEFFKERR; CT83) | 26 |
| H6-FYTSYLRRL-ERR (HHHHHHFYTSYLRRLERR; CT74) | 76 |
| H6-GFPSPLGGI-ERR (HHHHHHGFPSPLGGIERR; CT58) | 42 |
| H6-GHVAAGGAL-ERR (HHHHHHGHVAAGGALERR; CT79) | 46 |
| H6-GPPGGFQEF-ERR [CT4] (HHHHHHGPPGGFQEFERR; CT4) | 63 |
| H6-GPPGGFQEF-ERR [CT99] (HHHHHHGPPGGFQEFERR; CT99) | 53 |
| H6-GPPPHSAPC-ERR (HHHHHHGPPPHSAPCERR; H6 and ERR flanks; CT47) | 71 |
| H6-GRPSIDNVL-ERR (HHHHHHGRPSIDNVLERR; CT51) | 37 |
| H6-GYEAVVRLL-ERR (HHHHHHGYEAVVRLLERR; CT23) | 77 |
| H6-HHTMMVQAI-ERR (HHHHHHHHTMMVQAIERR; CT24) | 86 |

| Substance | Experimental rank |
| --- | --- |
| H6-HYLNDGDAI-ERR (HHHHHHHYLNDGDAIERR; H6 and ERR flanks; CT25) | 80 |
| H6-IGQMLQTHF-ERR (HHHHHHIGQMLQTHFERR; CT84) | 49 |
| H6-IPDEAMVKL-ERR (HHHHHHIPDEAMVKLERR; CT16) | 33 |
| H6-IPIFHILNT-ERR (HHHHHHIPIFHILNTERR; CT85) | 8 |
| H6-IYLESVAIM-ERR (HHHHHHIYLESVAIMERR; CT78) | 50 |
| H6-IYSRTTDVL-ERR (HHHHHHIYSRTTDVLERR; CT76) | 64 |
| H6-KGPKRDEQC-ERR (HHHHHHKGPKRDEQCERR; CT2) | 65 |
| H6-KGPRNIQLD-ERR (HHHHHHKGPRNIQLDERR; CT57) | 48 |
| H6-KGPYWLEVK-ERR (HHHHHHKGPYWLEVKERR; CT44) | 44 |
| H6-KLLASALST-ERR (HHHHHHKLLASALSTERR; CT39*) | 5 |
| H6-KPFTICKYY-ERR (HHHHHHKPFTICKYYERR; CT88) | 34 |
| H6-KPYESYTEQ-ERR (HHHHHHKPYESYTEQERR; CT87) | 75 |
| H6-KTPEL VEAL-ERR (HHHHHHKTPELVEALERR; CT36*) | 51 |
| H6-KYFQAGKYE-ERR (HHHHHHKYFQAGKYEERR; CT69) | 21 |
| H6-KYYAVNFSM-ERR [CT8] (HHHHHHKYYAVNFSMERR; CT8) | 88 |
| H6-KYYAVNFSM-ERR [CT95] (HHHHHHKYYAVNFSMERR; CT95) | 59 |
| H6-LFLKSPTAL-ERR (HHHHHHLFLKSPTALERR; CT34) | 99 |
| H6-LFVTVLEVI-ERR (HHHHHHLFVTVLEVIERR; CT26) | 91 |
| H6-LGYRYWTGI-ERR (HHHHHHLGYRYWTGIERR; CT92) | 41 |
| H6-LLYNAVVWL-ERR (HHHHHHLLYNAVVWLERR; CT93) | 27 |
| H6-LNYPHITNL-ERR (HHHHHHLNYPHITNLERR; CT81) | 54 |
| H6-LVPNRFSRL-ERR (HHHHHHLVPNRFSRLERR; CT45) | 13 |
| H6-LYLANLRHM-ERR (HHHHHHLYLANLRHMERR; CT64) | 14 |
| H6-MLARKQFDL-ERR (HHHHHHMLARKQFDLERR; CT86) | 60 |

| Substance | Experimental rank |
| --- | --- |
| H6-MPQLFMVSK-ERR (HHHHHHMPQLFMVSKERR; CT100) | 16 |
| H6-NALSSMGAL-ERR (HHHHHHNALSSMGALERR; CT40*) | 6 |
| H6-NPRAMQVLL-ERR (HHHHHHNPRAMQVLLERR; CT20) | 38 |
| H6-PGGFQEFNF-ERR (HHHHHHPGGFQEFNFERR; CT89) | 25 |
| H6-PGPIKCVPI-ERR (HHHHHHPGPIKCVPIERR; CT3) | 22 |
| H6-PPQNMFEFP-ERR (HHHHHHPPQNMFEFPERR; CT82) | 67 |
| H6-PTPRRFSPP-ERR (HHHHHHPTPRRFSPPERR; CT52) | 24 |
| H6-PYFRLEHYL-ERR (HHHHHHPYFRLEHYLERR; CT27) | 87 |
| H6-PYLTALDDL-ERR (HHHHHHPYLTALDDLERR; CT28) | 82 |
| H6-QFPSESEFF-ERR (HHHHHHQFPSESEFFERR; CT5) | 18 |
| H6-RGEYEDPYY-ERR (HHHHHHRGEYEDPYYERR; CT56) | 35 |
| H6-RGGPKKCAL-ERR (HHHHHHRGGPKKCALERR; CT53) | 32 |
| H6-RGPPPHSAP-ERR (HHHHHHRGPPPHSAPERR; H6 and ERR flanks; CT46) | 72 |
| H6-RHNTMLKAM-ERR (HHHHHHRHNTMLKAMERR; CT66) | 61 |
| H6-RKIKGPYWL-ERR (HHHHHHRKIKGPYWLERR; CT91) | 52 |
| H6-RPIKGPRNI-ERR (HHHHHHRPIKGPRNIERR; CT18) | 47 |
| H6-RTPHVLWSW-ERR (HHHHHHRTPHVLWSWERR; CT41) | 40 |
| H6-RYWTGIGVL-ERR (HHHHHHRYWTGIGVLERR; CT11) | 92 |
| H6-SEGNSSHTI-ERR (HHHHHHSEGNSSHTIERR; CT81) [CT80] | 31 |
| H6-SFQPTADEL-ERR (HHHHHHSFQPTADELERR; CT62) | 11 |
| H6-SGPIGPPEI-ERR (HHHHHHSGPIGPPEIERR; CT48) | 70 |
| H6-SGPSYATYL-ERR (HHHHHHSGPSYATYLERR; CT1) | 62 |
| H6-SPKALAHNG-ERR (HHHHHHSPKALAHNGERR; CT37*) | 1 |
| H6-SPNRRFTEM-ERR (HHHHHHSPNRRFTEMERR; CT17) | 58 |

| Substance | Experimental rank |
| --- | --- |
| H6-SRLQSLTLI-ERR (HHHHHHSRLQSLTLIERR; CT72) | 7 |
| H6-SSKHRRSFV-ERR (HHHHHHSSKHRRSFVERR; CT38*) | 45 |
| H6-SYATYLQPA-ERR (HHHHHHSYATYLQPAERR; CT63) | 19 |
| H6-SYETLKKSL-ERR (HHHHHHSYETLKKSLERR; CT7) | 94 |
| H6-SYIKKLKEL-ERR (HHHHHHSYIKKLKELERR; CT29) | 90 |
| H6-SYIMAICGM-ERR [CT67] | 36 |
| H6-SYLRRLPGL-ERR (HHHHHHSYLRRLPGLERR; CT35) | 100 |
| H6-SYQAALAEN-ERR (HHHHHHSYQAALAENERR; CT77) | 39 |
| H6-SYTEQNVKL-ERR (HHHHHHSYTEQNVKLERR; CT30) | 85 |
| H6-SYTSYIMAI-ERR (HHHHHHSYTSYIMAIERR; CT10) | 69 |
| H6-TALPVGFSL-ERR (HHHHHHTALPVGFSLERR; CT90) | 79 |
| H6-TGPYVMMIG-ERR (HHHHHHTGPYVMMIGERR; CT6) | 84 |
| H6-TGRRRTATK-ERR (HHHHHHTGRRRTATKERR; CT59) | 30 |
| H6-TPHVLWSWG-ERR (HHHHHHTPHVLWSWGERR; CT97) | 4 |
| H6-TPPSHKLPL-ERR (HHHHHHTPPSHKLPLERR; CT55) | 23 |
| H6-TPPSIFSTQ-ERR (HHHHHHTPPSIFSTQERR; CT49) | 73 |
| H6-TY AIALINV-ERR (HHHHHHTYAIALINVERR; CT70) | 29 |
| H6-TYLQPAQAQ-ERR (HHHHHHTYLQPAQAQERR; CT75) | 12 |
| H6-TYWKGNPEM-ERR (HHHHHHTYWKGNPEMERR; CT31) | 97 |
| H6-VVEANWTML-ERR (HHHHHHVVEANWTMLERR; CT96) | 2 |
| H6-VVLETFYDL-ERR (HHHHHHVVLETFYDLERR; CT19) | 56 |
| H6-VYFTINVNL-ERR (HHHHHHVYFTINVNLERR; CT32) | 43 |
| H6-VYFVAGVRV-ERR (HHHHHHVYFVAGVRVERR; H6 and ERR flanks; CT71) | 3 |

Reference: patent publication US20240091328A1, “FORMULATIONS AND METHODS FOR MHC-I RESTRICTED EPITOPE IMMUNIZATION” (The Research Foundation for The State University of New York, priority 2021, published 2024)
